Experimental data: patent US6583156B1 (Vernalis Research Limited, priority 1998, dated 2003)

How the values were obtained:
[1] = molecular target: human adenosine A2A receptors (Homo sapiens, UniProt P29274); assay: Binding affinities at hA2A receptors, displacement of [3H]-CGS 21680; settings: in vitro binding, radioligand [3H]-CGS 21680
Description: The compounds were examined in an assay measuring in vitro binding to human adenosine A2A receptors by determining the displacement of the adenosine A2A receptor selective radioligand [^3H]-CGS 21680 using standard techniques.

[2] = tested on: haloperidol-induced hypolocomotion; assay: Haloperidol-induced hypolocomotion model; type: in vivo; settings: mice, 10 mg/kg intraperitoneally, haloperidol 0.2 mg/kg
Description: This approach is also considered a valid method for screening drugs with potential antiparkinsonian effects. Thus, the ability of novel adenosine antagonists to block haloperidol-induced deficits in locomotor activity in mice can be used to assess both in vivo and potential antiparkinsonian efficacy.
Female TO mice (25-30 g) obtained from TUCK, UK, are used for all experiments. Animals are housed in groups of 8 [cage size−40 (width)×40 (length)×20 (height)cm] under 12 hr light/dark cycle (lights on 08:00 hr), in a temperature (20±2° C.) and humidity (55±15%) controlled environment. Animals have free access to food and water, and are allowed at least 7 days to acclimatize after delivery before experimental use.
Liquid injectable haloperidol (1 ml Serenance ampoules from Baker Norton, Harlow, Essex, each containing haloperidol BP 5 mg, batch # P424) are diluted to a final concentration of 0.02 mg/ml using saline. Test compounds are typically prepared as aqueous suspensions in 8% Tween. All compounds are administered intraperitoneally in a volume of 10 ml/kg.
1.5 hours before testing, mice are administered 0.2 mg/kg haloperidol, a dose that reduces baseline locomotor activity by at least 50%. […] Horizontal locomotor activity is determined by placing the cages within a frame containing a 3×6 array of photocells linked to a computer, which tabulates beam breaks. […]

[3] = tested on: catalepsy; settings: cited from earlier work
[4] = cited from earlier work

human adenosine A2A receptors, sequence (P29274 whole entry): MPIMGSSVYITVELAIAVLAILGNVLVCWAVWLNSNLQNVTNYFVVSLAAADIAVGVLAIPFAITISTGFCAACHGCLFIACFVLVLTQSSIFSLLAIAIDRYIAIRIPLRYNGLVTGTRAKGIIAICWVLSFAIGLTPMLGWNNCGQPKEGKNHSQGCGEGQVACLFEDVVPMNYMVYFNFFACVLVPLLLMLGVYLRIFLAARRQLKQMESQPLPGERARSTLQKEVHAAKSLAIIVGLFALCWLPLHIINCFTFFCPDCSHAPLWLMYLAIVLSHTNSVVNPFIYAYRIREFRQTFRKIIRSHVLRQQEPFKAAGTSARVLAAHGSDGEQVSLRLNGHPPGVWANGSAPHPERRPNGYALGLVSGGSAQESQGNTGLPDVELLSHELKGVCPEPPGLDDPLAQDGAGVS

For CCc1cccc2c(C(O)c3ccccc3)cc(C(F)(F)F)nc12 (stereo not drawn) [Example 31, 8-Ethyl-α-phenyl-2-trifluoromethy-4-quinolinemethanol], the melting point was 102 to 104 °C and the Ki [1] was 1770 nM.

For Oc1cc(C(O)C2CCCCC2)c2ccccc2n1 (stereo not drawn) [Example 86, α-Cyclohexyl-2-hydroxy-4-quinolinemethanol], the “reversal of haloperidol-induced hypolocomotion” value [2] was “significantly reversed” and the melting point was over 250 °C.

For CCCn1c(=O)c2c(nc(/C=C/c3ccc(OC)c(OC)c3)n2C)n(CCC)c1=O [KF 17837, (E)-8-(3,4-dimethoxystyryl)-1,3-dipropyl-7-methylxanthine], the “anticataleptic effects of a subthreshold dose of L-DOPA plus benserazide” value ([3]; in vivo) is given as “potentiated”, the “catalepsy induced by haloperidol and reserpine” value ([3]; in vivo) is given as “reduced” and the “cataleptic responses induced by intracerebroventricular CGS 21680” value ([3]; oral administration) is given as “significantly ameliorated”.

In the case of Cn1c(=O)c2[nH]cnc2n(C)c1=O [theophylline, 1,3-dimethylxanthine], the “mean objective disability scores” value ([4]; 15 Parkinsonian patients, up to 12 weeks, 150 mg/day) is given as “significant improvements” and the serum theophylline levels ([4]; slow release oral preparation 150 mg/day, after one week, Parkinsonian patients) is given as 4.44 mg/L.
